Earlier results as cited in patent US10526439B2, “High dielectric breakdown strength resins” (priority 2017, dated 2020).

Conditions: monomer property, Table IA; species and route not given

| SMILES | Toxicity LD50 |
| --- | --- |
| C=Cc1ccc(C(C)(C)C)cc1 [Monomer 1, 4-tert butyl styrene] | >2000 mg/kg |
| C=Cc1ccccc1 [STYRENE, styrene] | >2000 mg/kg |
